# From ChEMBL document CHEMBL4184170, “New Caspase-1 inhibitor by scaffold hopping into bio-inspired 3D-fragment space” (Bioorg Med Chem Lett, 2017)
# Legend:
# [1] = Lipophilicity, log D of the compound at pH 6.5 by chromatographic method; type: physicochemical; details: buffer
# [2] = molecular target: T1, Caspase-1 (Homo sapiens, UniProt P29466); assay: Inhibition of human recombinant caspase1 expressed in Escherichia coli using AC-WEHD-AMC as substrate after 20 mins by fluorescence assay
# T1 sequence (P29466 whole entry): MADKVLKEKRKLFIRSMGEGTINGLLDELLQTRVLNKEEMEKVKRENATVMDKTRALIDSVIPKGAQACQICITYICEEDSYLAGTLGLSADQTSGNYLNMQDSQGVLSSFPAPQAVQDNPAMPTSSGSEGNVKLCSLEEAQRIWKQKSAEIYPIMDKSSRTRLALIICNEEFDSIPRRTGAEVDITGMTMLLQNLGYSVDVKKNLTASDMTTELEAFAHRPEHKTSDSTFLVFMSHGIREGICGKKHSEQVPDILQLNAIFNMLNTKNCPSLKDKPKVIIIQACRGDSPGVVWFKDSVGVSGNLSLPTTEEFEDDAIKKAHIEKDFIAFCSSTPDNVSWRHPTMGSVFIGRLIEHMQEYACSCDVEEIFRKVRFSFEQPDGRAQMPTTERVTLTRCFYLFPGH
# [3] = molecular target: T1, Caspase-1; assay: Inhibition of caspase1 in human THP1 cells assessed as LPS/ATP-induced IL-1beta release preincubated for 24 hrs in presence of LPS measured after overnight incubation by HTRF assay; type: cell-based
# [4] = Fraction unbound in human plasma at 5 uM after 4 hrs by LC-MS/MS-based equilibrium dialysis method; type: ADME, cell-free
chromatographic logD [1],IC50 [2] [µM],IC50 [3] [µM],"fraction unbound at 4 h, 5 µM [4]",SMILES
2.1,0.017,0.086,0.12,CC(C)[C@H](NC(=O)c1ccc2ccccc2c1)C(=O)N1[C@H]2CC[C@](O)(CC2)[C@H]1C(=O)N[C@H]1CC(=O)OC1O (stereo partly specified)
,0.011,,,O=C1C[C@H](NC(=O)[C@@H]2CC[C@@H]3CCCC[C@H](NC(=O)c4nccc5ccccc45)C(=O)N32)C(O)O1 (stereo partly specified)
,0.005,,,CC(C)(C)[C@H](NC(=O)c1ccc(N)c(Cl)c1)C(=O)N1CCC[C@H]1C(=O)N[C@H]1CC(=O)OC1O (stereo partly specified)
